Values joined by “and” are separate entries in the source; they are usually repeats but may differ in a detail not shown here. Equal entries are not always repeated. “Also recorded” adds a separate entry of the source. Where two headings read alike, the source gives them in different places.
Key:
[1] = test system: human cytomegalovirus (HCMV), strain AD-169; test: Antiviral test (plaque reduction) versus HCMV, strain AD-169, in MRC-5 cells; format: cell-based
[2] = test system: MRC-5 cells
[3] = Human betaherpesvirus 5, AD169, MRC5, read-out: Percent Inhibition of Plaque Numbers (Compared to Virus Controls)
[4] = 10 μg/ml, Example 2, ethanol stock (protohypericin in DMSO), cells exposed 6 or more days
[5] = Example 2, cells exposed 6 or more days
[6] = Table 9 summary, two values = two experiments
[7] = Human betaherpesvirus 5, AD169, MRC5, read-out: % Reduction
[8] = Human betaherpesvirus 5, AD169, MRC5, 0.01 μg/ml, Example 2, read-out: Percent Inhibition of Plaque Numbers (Compared to Virus Controls)
[9] = Human betaherpesvirus 5, AD169, MRC5, 0.032 μg/ml, Example 2, read-out: Percent Inhibition of Plaque Numbers (Compared to Virus Controls)
[10] = Human betaherpesvirus 5, AD169, MRC5, 0.1 μg/ml, Example 2, read-out: Percent Inhibition of Plaque Numbers (Compared to Virus Controls)
[11] = Human betaherpesvirus 5, AD169, MRC5, 0.32 μg/ml, Example 2, read-out: Percent Inhibition of Plaque Numbers (Compared to Virus Controls)
[12] = Human betaherpesvirus 5, AD169, MRC5, 1.0 μg/ml, Example 2, read-out: Percent Inhibition of Plaque Numbers (Compared to Virus Controls)
[13] = Human betaherpesvirus 5, AD169, MRC5, 3.2 μg/ml, Example 2, read-out: Percent Inhibition of Plaque Numbers (Compared to Virus Controls)
[14] = Human betaherpesvirus 5, AD169, MRC5, 10 μg/ml, Example 2, ethanol stock (protohypericin in DMSO), cells exposed 6 or more days, read-out: Percent Inhibition of Plaque Numbers (Compared to Virus Controls)

## O=C1c2ccc(O)cc2C(=O)c2ccc(O)cc21 [Anthraflavic Acid, anthraflavic acid]
[1]; [3]
  inhibition at 0.01 µg/mL: 0%
  inhibition at 0.032 µg/mL: 0%
  inhibition at 0.1 µg/mL: 0%
  inhibition at 0.32 µg/mL: 0%
  inhibition at 1 µg/mL: 11%
  inhibition at 3.2 µg/mL: 15%
[2]; human
  CD50: 3.4 µg/mL

## Cc1cc(O)c2c(c1)C(C1c3cc(C)cc(O)c3C(=O)c3c(O)cc(O)cc31)c1cc(O)cc(O)c1C2=O (stereo not drawn) [Emodin Bianthrone (meso), emodin bianthrone]
[1]; 0.01 μg/ml, Example 2
  Percent Inhibition of Plaque Numbers (Compared to Virus Controls): 0%
[1]; 0.032 μg/ml, Example 2
  Percent Inhibition of Plaque Numbers (Compared to Virus Controls): 0%
[1]; 0.1 μg/ml, Example 2
  Percent Inhibition of Plaque Numbers (Compared to Virus Controls): 0%
[1]; 0.32 μg/ml, Example 2
  Percent Inhibition of Plaque Numbers (Compared to Virus Controls): 0%
[1]; 1.0 μg/ml, Example 2
  Percent Inhibition of Plaque Numbers (Compared to Virus Controls): 32%
[1]; 3.2 μg/ml, Example 2
  Percent Inhibition of Plaque Numbers (Compared to Virus Controls): toxic
[1]; [4]
  Percent Inhibition of Plaque Numbers (Compared to Virus Controls): toxic
[2]; [5]
  CD50: 1.8 µg/mL
[2]; [6]
  CD50: 1.8 µg/mL

## O=C1c2ccccc2C(=O)c2c(O)c(O)cc(O)c21 [Purpurin, purpurin]
[1]; [7]
  inhibition at 0.01 µg/mL: 0%
  inhibition at 0.032 µg/mL: 0%
  inhibition at 0.1 µg/mL: 0%
  inhibition at 0.32 µg/mL: 0%
  inhibition at 1 µg/mL: 0%
  inhibition at 3.2 µg/mL: 0%
[2]; human
  CD50: 5.6 µg/mL

## O=C1c2cccc(O)c2C(=O)c2c(O)cc(CO)cc21 [Aloe-Emodin, aloe-emodin]
[1]; [8]
  inhibition at 0.01 µg/mL: 0%
[1]; [9]
  inhibition at 0.032 µg/mL: 0%
[1]; [10]
  inhibition at 0.1 µg/mL: 0%
[1]; [11]
  inhibition at 0.32 µg/mL: 0%
[1]; [12]
  inhibition at 1 µg/mL: 0%
[1]; [13]
  inhibition at 3.2 µg/mL: 0%
[1]; [14]
  inhibition at 10 µg/mL: 0%
[2]; human
  CD50: >10 µg/mL

## O=C1c2ccccc2C(=O)c2c(O)ccc(O)c21 [Quinizarin, 1,4-dihydroxyanthraquinone]
[1]
  Activity against HCMV: Slight activity; also recorded: show activity; also recorded: activity but at lower levels
[1]; [7]
  inhibition at 0.01 µg/mL: 0%
  inhibition at 0.032 µg/mL: 0%
  inhibition at 0.1 µg/mL: 0%
  inhibition at 0.32 µg/mL: 0%
[2]; human
  CD50: >10 µg/mL

## Cc1cc(O)c2c(c1)C(C1c3cc(C)cc(O)c3C(=O)c3c(O)cc(O)cc31)c1cc(O)cc(O)c1C2=O (stereo not shown) [Emodin Bianthrone (d,1), emodin bianthrone]
[1]; 0.01 μg/ml, Example 2
  Percent Inhibition of Plaque Numbers (Compared to Virus Controls): 0%
[1]; 0.032 μg/ml, Example 2
  Percent Inhibition of Plaque Numbers (Compared to Virus Controls): 0%
[1]; 0.1 μg/ml, Example 2
  Percent Inhibition of Plaque Numbers (Compared to Virus Controls): 0%
[1]; 0.32 μg/ml, Example 2
  Percent Inhibition of Plaque Numbers (Compared to Virus Controls): 0%
[1]; 1.0 μg/ml, Example 2
  Percent Inhibition of Plaque Numbers (Compared to Virus Controls): 33%
[1]; 3.2 μg/ml, Example 2
  Percent Inhibition of Plaque Numbers (Compared to Virus Controls): toxic
[1]; [4]
  Percent Inhibition of Plaque Numbers (Compared to Virus Controls): toxic
[2]; [5]
  CD50: 1.2 µg/mL
[2]; [6]
  CD50: 1.2 µg/mL

## O=C1c2cccc(O)c2C(=O)c2cccc(O)c21 [Anthrarufin, anthrarufin]
[1]; [7]
  inhibition at 0.01 µg/mL: 0%
  inhibition at 0.032 µg/mL: 0%
  inhibition at 0.1 µg/mL: 0%
  inhibition at 0.32 µg/mL: 0%
  inhibition at 1 µg/mL: 0%
  inhibition at 3.2 µg/mL: 0%
  inhibition at 10 µg/mL: 0%
[2]; human
  CD50: >10 µg/mL

## Cc1cc(O)c2c(c1)C(=O)c1cccc(O)c1C2=O [Chrysophanol, chrysophanol]
[1]; [8]
  inhibition at 0.01 µg/mL: 0%
[1]; [9]
  inhibition at 0.032 µg/mL: 0%
[1]; [10]
  inhibition at 0.1 µg/mL: 0%
[1]; [11]
  inhibition at 0.32 µg/mL: 0%
[1]; [12]
  inhibition at 1 µg/mL: 0%
[1]; [13]
  inhibition at 3.2 µg/mL: 0%
[1]; [14]
  inhibition at 10 µg/mL: 0%
[2]; human
  CD50: >10 µg/mL

## O=C(O)c1cc(O)c2c(c1)[C@@H]([C@H]1c3cc(C(=O)O)cc(O)c3C(=O)c3c(O[C@@H]4O[C@H](CO)[C@@H](O)[C@H](O)[C@H]4O)cccc31)c1cccc(O[C@@H]3O[C@H](CO)[C@@H](O)[C@H](O)[C@H]3O)c1C2=O [Meso Sennoside B, sennoside B]
[1]; 0.01 μg/ml, Example 2
  Percent Inhibition of Plaque Numbers (Compared to Virus Controls): 0%
[1]; 0.032 μg/ml, Example 2
  Percent Inhibition of Plaque Numbers (Compared to Virus Controls): 0%
[1]; 0.1 μg/ml, Example 2
  Percent Inhibition of Plaque Numbers (Compared to Virus Controls): 0%
[1]; 0.32 μg/ml, Example 2
  Percent Inhibition of Plaque Numbers (Compared to Virus Controls): 0%
[1]; 1.0 μg/ml, Example 2
  Percent Inhibition of Plaque Numbers (Compared to Virus Controls): 0%
[1]; 3.2 μg/ml, Example 2
  Percent Inhibition of Plaque Numbers (Compared to Virus Controls): 0%
[1]; [4]
  Percent Inhibition of Plaque Numbers (Compared to Virus Controls): 0%
[2]; [5]
  CD50: >10 µg/mL
[2]; [6]
  CD50: >10 µg/mL

## O=C1c2c(O)cccc2C([C@@H]2O[C@H](CO)[C@@H](O)[C@H](O)[C@H]2O)c2cc(CO)cc(O)c21 (stereo partly shown) [Aloin, aloin]
[1]
  Number of Plaques: 24 and 26 and 20 and 16
[1]; [7]
  inhibition at 0.01 µg/mL: 0%
  inhibition at 0.032 µg/mL: 0%
  inhibition at 0.1 µg/mL: 0%
  inhibition at 0.32 µg/mL: 0%
  inhibition at 1 µg/mL: 0%
  inhibition at 3.2 µg/mL: 0%
  inhibition at 10 µg/mL: 0%
[2]; human
  CD50: >10 µg/mL

## O=C(O)c1cc(O)c2c(c1)[C@H]([C@H]1c3cc(C(=O)O)cc(O)c3C(=O)c3c(O[C@@H]4O[C@H](CO)[C@@H](O)[C@H](O)[C@H]4O)cccc31)c1cccc(O[C@@H]3O[C@H](CO)[C@@H](O)[C@H](O)[C@H]3O)c1C2=O [(+)Sennoside A, sennoside A]
[1]; 0.01 μg/ml, Example 2
  Percent Inhibition of Plaque Numbers (Compared to Virus Controls): 0%
[1]; 0.032 μg/ml, Example 2
  Percent Inhibition of Plaque Numbers (Compared to Virus Controls): 0%
[1]; 0.1 μg/ml, Example 2
  Percent Inhibition of Plaque Numbers (Compared to Virus Controls): 0%
[1]; 0.32 μg/ml, Example 2
  Percent Inhibition of Plaque Numbers (Compared to Virus Controls): 0%
[1]; 1.0 μg/ml, Example 2
  Percent Inhibition of Plaque Numbers (Compared to Virus Controls): 0%
[1]; 3.2 μg/ml, Example 2
  Percent Inhibition of Plaque Numbers (Compared to Virus Controls): 0%
[1]; [4]
  Percent Inhibition of Plaque Numbers (Compared to Virus Controls): 0%
[2]; [5]
  CD50: >10 µg/mL
[2]; [6]
  CD50: >10 µg/mL

## O=C1c2ccccc2C(=O)c2ccccc21 [Anthraquinone, anthraquinone]
[1]; 0.01 μg/ml, Example 5
  Number of Plaques: 36
[1]; 0.032 μg/ml, Example 5
  Number of Plaques: 27
[1]; 0.1 μg/ml, Example 5
  Number of Plaques: 30
[1]; 0.32 μg/ml, Example 5
  Number of Plaques: 32
[1]; 1.0 μg/ml, Example 5
  Number of Plaques: 34
[1]; 3.2 μg/ml, Example 5
  Number of Plaques: 36
[1]; 10.0 μg/ml, Example 5
  Number of Plaques: 55
[1]; Human betaherpesvirus 5, AD169, MRC5, 0.01 μg/ml, Example 5, read-out: % Reduction
  inhibition at 0.01 µg/mL: 20%
[1]; Human betaherpesvirus 5, AD169, MRC5, 0.032 μg/ml, Example 5, read-out: % Reduction
  inhibition at 0.032 µg/mL: 27%
[1]; Human betaherpesvirus 5, AD169, MRC5, 0.1 μg/ml, Example 5, read-out: % Reduction
  inhibition at 0.1 µg/mL: 33%
[1]; Human betaherpesvirus 5, AD169, MRC5, 0.32 μg/ml, Example 5, read-out: % Reduction
  inhibition at 0.32 µg/mL: 29%
[1]; Human betaherpesvirus 5, AD169, MRC5, 1.0 μg/ml, Example 5, read-out: % Reduction
  inhibition at 1 µg/mL: 24%
[1]; Human betaherpesvirus 5, AD169, MRC5, 3.2 μg/ml, Example 5, read-out: % Reduction
  inhibition at 3.2 µg/mL: 20%
[1]; Human betaherpesvirus 5, AD169, MRC5, 10.0 μg/ml, Example 5, read-out: % Reduction
  inhibition at 10 µg/mL: 0%
[2]; human
  CD50: >10 µg/mL

## protohypericin
[1]
  Activity against HCMV: show activity; also recorded: good biological activity
  Activity in initial screening against HCMV in vitro: active
  Percent Inhibition of Plaque Numbers (Compared to Virus Controls): 0%
[2]; [5]
  CD50: 5.6 µg/mL
[2]; [6]
  CD50: 5.6 µg/mL

## COc1cc(O)c2c(c1)C(=O)c1cc(C)cc(O)c1C2=O [Physcione, physcione]
[1]; 0.01 μg/ml, Example 6
  % Reduction: 0%
  Number of Plaques: 17
[1]; 0.032 μg/ml, Example 6
  % Reduction: 0%
  Number of Plaques: 14
[1]; 0.1 μg/ml, Example 6
  % Reduction: 0%
  Number of Plaques: 19
[1]; 0.32 μg/ml, Example 6
  % Reduction: 0%
  Number of Plaques: 18
[1]; 1.0 μg/ml, Example 6
  % Reduction: 0%
  Number of Plaques: 18
[1]; 3.2 μg/ml, Example 6
  % Reduction: 0%
  Number of Plaques: 25
[1]; 10.0 μg/ml, Example 6
  % Reduction: 0%
  Number of Plaques: 31
[2]
  CD50: >10 µg/mL

Source: patent US6686393B1, “Pharmaceutical compositions having antiviral activity against human cytomegalovirus” (Murdock International Corporation, priority 1990, dated 2004)
